Measured values: patent US20260216109A1, “TREATMENT OF SKIN DISORDERS WITH SHORT CHAIN FATTY ACIDS” (Temple University-Of The Commonwealth System of Higher …, priority 2023, published 2026)

Tests used:
[1] = system: imiquimod (IMQ)-induced psoriasis model mice; experiment: Transepidermal water loss (TEWL) on back skin, IMQ-induced psoriasis model in mice; format: in vivo, mouse; details: Example 4, day 5, Apremilast 25 mg/kg BID p.o., SCFA fixed dose BID p.o., Etanercept 10 mg/kg Q3D s.c.
Protocol: Topical application of IMQ, a TLR7/8 ligand and potent immune activator induced and exacerbated psoriasis in mice. The mouse IMQ-induced psoriasis (IMQ Ps) model was initiated by a repeated topical application of Aldara© cream (containing 5% IMQ) over 6 consecutive days. Female Balb/c mice (9 weeks of age at reception, ordered with 20 g, Charles River, Sulzfeld, Germany; n=10 mice/group, exception healthy controls n=4) received daily a topical application of 62.5 mg of commercially available IMQ cream (5% Aldara©) on the beforehand (day −1) shaved (~2 cm×3 cm), depilated (Pilka© cream) back skin, and 7 mg on the outer right ear skin for 6 consecutive days, translating in a daily dose of approximately 3.5 mg IMQ. Healthy control mice were included in the study and were treated with vehicle cream (Vaseline; Bombastus-Werke AG) only instead of IMQ. Additionally, an IMQ disease control group was also included.
Physiological parameter transepidermal water loss (TEWL; in g/m^2/h) was tested and evaluated on back skin at day 5 by a Tewameter (TM300, Courage and Khazaka, Cologne, Germany) during the IMQ psoriasis experiment. TEWL is a common examined parameters for the assessment of a disturbed skin function present in psoriatic skin. TEWL may be used a diagnostic marker in the clinics to accurately assess the disease severity in psoriasis.

IL-17A = experiment: Multiplex (MSD V-PLEX) cytokine release, InflammaSkin: IL-17A; format: cell-based, human; details: Example 1; Day 7 supernatant; 1 μM Otezla or SCFA (45 μg/mL Ca-propionate + 1 mM Ca-/Mg-butyrate) systemic, 0.05% Betamethasone topical; vs untreated InflammaSkin
Protocol: (§1) A total of 16 biopsies of 15 mm diameter were produced from a single donor. Two NativeSkin® models with 12/15 mm silicon rings were produced from the biopsies according to standard procedures in place, and cultured under cell culture conditions (37° C., 5% CO2, max. humidity) for 7 days with 2 mL of standard NativeSkin® medium renewed every day. Fourteen PSO-InflammaSkin® models with 12/15 mm silicon rings were produced by inducing in situ activation and Th17/Th1 polarization of skin resident T cells with a proprietary cocktail, and cultured under cell culture conditions (37° C., 5% CO2, max. humidity) for 7 days with 2 mL of PSO-InflammaSkin® culture medium renewed every day.
(§2) From Day 1 to Day 6, models were systemically treated with 1 μM Otezla or Short Chain Fatty Acids (SCFAs), or topically treated with positive control 0.05% Betamethasone
(§3) In these experiments, the SCFAs administered were 45 μg/mL of Ca-propionate and 1 mM mixture of salts (Ca-butyrate and Mg-butyrate).
At Day 7, supernatants were collected and stored at −80° C. and skin models of all conditions were carefully unmolded. […]
Human pro-inflammatory cytokines released in the supernatant were quantified using the V-PLEX Human IL-17A Kit (MesoScale Discovery, reference: K151RFD-1) and V-PLEX Human TNFα Kit (MesoScale Discovery, reference: K151QWD-1). […]
(§4) Human pro-inflammatory cytokines released in the supernatant were quantified using the V-PLEX Human IL-17A Kit (MesoScale Discovery, reference: K151RFD-1) and V-PLEX Human custom Pro-inflammatory. […]
(§5) Samples were diluted four times for plate 2 and two times for plate 1. Samples and standards were assessed in duplicate. Plates were read on MesoScale Discovery Quickpleax SQ 120 plate reader and values expressed in pg/mL.
(§6) A statistical analysis was performed. […] First, the distribution's normality of the two compared group was assessed. […] If the two distributions were normal, the homogeneity of variances was assessed using a Fisher test on the variances. […]

TNF-α = experiment: Multiplex (MSD V-PLEX) cytokine release, InflammaSkin: TNF-α; format: cell-based, human; details: Example 1; Day 7 supernatant; SCFA (45 μg/mL Ca-propionate + 1 mM Ca-/Mg-butyrate) systemic, 0.05% Betamethasone topical; vs untreated InflammaSkin
Protocol: as §1, §2, §3
At Day 7, supernatants were collected and stored at −80° C. and skin models of all conditions were carefully unmolded. Skin biopsies were re-punched to eliminate the area under the silicon ring, fixed in 10% buffered formalin and processed for paraffin wax embedding.
Human pro-inflammatory cytokines released in the supernatant were quantified using the V-PLEX Human IL-17A Kit (MesoScale Discovery, reference: K151RFD-1) and V-PLEX Human TNFα Kit (MesoScale Discovery, reference: K151QWD-1). Values are expressed in pg/mL. For each condition, single values, mean and SEM were plotted using GraphPad Prism. Statistical analysis was performed using a One Way ANOVA test.
PSO-InflammaSkin® models were cultured and treated as described in Example 1. In these experiments, the SCFAs administered were 45 μg/mL of Ca-propionate and 1 mM mixture of salts (Ca-butyrate and Mg-butyrate).
Human pro-inflammatory cytokines released in the supernatant were quantified using the V-PLEX Human IL-17A Kit (MesoScale Discovery, reference: K151RFD-1) and V-PLEX Human custom Pro-inflammatory. Plate 1 comprised Proinflammatory Panel 1 (human) kit reference K15049 (panel IFN-γ and TNF-α). Plate 2 comprised TH17 Panel 1 (human) kit reference K15049 (panel IL-17A Gen B, IL-21, IL-22, IL-23, IL-27, IL-31, MIP-3α).
as §5
A statistical analysis was performed. Each condition was compared to the untreated InflammaSkin® condition. First, the distribution's normality of the two compared group was assessed. […] If the two distributions were normal, the homogeneity of variances was assessed using a Fisher test on the variances. […]

IL-27 = experiment: Multiplex (MSD V-PLEX) cytokine release, InflammaSkin: IL-27; format: cell-based, human; details: Example 2; 0.05% Betamethasone topical; vs untreated InflammaSkin
Protocol: A total of 16 biopsies of 15 mm diameter were produced from a single donor. Two NativeSkin® models with 12/15 mm silicon rings were produced from the biopsies according to standard procedures in place, and cultured under cell culture conditions (37° C., 5% CO2, max. humidity) for 7 days with 2 mL of standard NativeSkin® medium renewed every day. Fourteen PSO-InflammaSkin® models with 12/15 mm silicon rings were produced by inducing in situ activation and Th17/Th1 polarization of skin resident T cells with a proprietary cocktail, and cultured under cell culture conditions (37° C., 5% CO2, max. humidity) for 7 days with 2 mL of PSO-InflammaSkin® culture medium renewed every day. […]
as §4, §5, §6

Row | Compound | transepidermal water loss (TEWL) [1] | IL-17A levels decreased by (IL-17A) | TNF-α levels decreased by (TNF-α) | increase of IL-27 cytokine secretion (IL-27)
1 | Etanercept | did not show significant effects |  |  | 
2 | C[C@H]1C[C@H]2[C@@H]3CCC4=CC(=O)C=C[C@]4(C)[C@@]3(F)[C@@H](O)C[C@]2(C)[C@@]1(O)C(=O)CO [Betamethasone] |  | about 70% | ~ 40% | about 30%
